# Counter-ions that a name gives are not always drawn.
# Molecular target: human mOR (Homo sapiens (Human), UniProt P35372)
# Assay: cell-based
# Conditions: not given
# Sequence of human mOR (P35372 whole entry): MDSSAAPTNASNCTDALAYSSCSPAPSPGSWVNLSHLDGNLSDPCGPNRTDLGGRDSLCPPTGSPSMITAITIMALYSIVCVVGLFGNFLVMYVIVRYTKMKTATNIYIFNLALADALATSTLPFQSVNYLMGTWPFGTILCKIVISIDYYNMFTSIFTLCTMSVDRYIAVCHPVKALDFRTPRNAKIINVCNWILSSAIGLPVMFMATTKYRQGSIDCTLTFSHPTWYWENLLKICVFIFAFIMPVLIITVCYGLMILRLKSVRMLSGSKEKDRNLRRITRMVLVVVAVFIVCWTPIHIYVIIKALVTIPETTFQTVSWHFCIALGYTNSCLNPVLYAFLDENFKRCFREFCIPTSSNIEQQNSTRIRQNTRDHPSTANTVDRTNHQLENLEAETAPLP
row,Structure (SMILES),IC50 [nM]
1,"CNC(=O)c1ccc(C[C@@H](CNC(=O)C[C@@H](CC(C)C)c2ccccn2)N(C)C)c(C)c1 [Compound 140, 4-((S)-2-(dimethylamino)-3-((R)-5-methyl-3-(pyridin-2-yl)hexanamido)propyl)-N,3-dimethylbenzamide]",> 3000
2,"CNC(=O)c1cc(C)c(C[C@@H](CNC(=O)C[C@H](c2ccccc2)C2(C(F)(F)F)CC2)N(C)C)cc1F [Compound 144, 4-((S)-2-(dimethylamino)-3-((R)-3-phenyl-3-(1-(trifluoromethyl)cyclopropyl)propanamido)propyl)-2-fluoro-N,5-dimethylbenzamide]",> 3000
3,"CNC(=O)c1ccc(C[C@@H](CNC(=O)C[C@@H](c2cncc(F)c2)C(C)(C)C)N(C)C)cc1F [Compound 151, 4-((S)-2-(dimethylamino)-3-((R)-3-(5-fluoropyridin-3-yl)-4,4-dimethylpentanamido)propyl)-2-fluoro-N-methylbenzamide]",300 to 3000
4,"CNC(=O)c1ccc(C[C@@H](CNC(=O)C[C@H](c2cnc(C)nc2)C2(C(F)(F)F)CC2)N(C)C)cc1F [Compound 152, 4-((S)-2-(dimethylamino)-3-((R)-3-(2-methylpyrimidin-5-yl)-3-(1-(trifluoromethyl)cyclopropyl)propanamido)propyl)-2-fluoro-N-methylbenzamide]",> 3000
5,"CNC(=O)c1ccc(C[C@@H](CNC(=O)C[C@@H](c2ccccn2)C2(C(F)(F)F)CC2)N(C)C)cc1F [Compound 153, 4-((S)-2-(dimethylamino)-3-((R)-3-(pyridin-2-yl)-3-(1-(trifluoromethyl)cyclopropyl)propanamido)propyl)-2-fluoro-N-methylbenzamide]",> 3000
6,"CNC(=O)c1ccc(C[C@@H](CNC(=O)C[C@@H](c2ccccc2)C2(C(F)(F)F)CC2)N(C)C)cc1F [Compound 154, 4-((S)-2-(dimethylamino)-3-((S)-3-phenyl-3-(1-(trifluoromethyl)cyclopropyl)propanamido)propyl)-2-fluoro-N-methylbenzamide]",< 300
7,"CCN(CC)[C@H](CNC(=O)C[C@@H](c1ccccc1)C(C)(C)C)Cc1ccc(C(=O)NC)c(F)c1 [Compound 166, 4-((S)-2-(diethylamino)-3-((R)-4,4-dimethyl-3-phenylpentanamido)propyl)-2-fluoro-N-methylbenzamide]",< 300
8,"Cc1ncc([C@@H](CC(=O)NC[C@H](Cc2ccc3[nH]c(=O)oc3c2C)N(C)C)C2(C(F)(F)F)CC2)cn1 [Compound 169, (R)-N-((S)-2-(dimethylamino)-3-(7-methyl-2-oxo-2,3-dihydrobenzo[d]oxazol-6-yl)propyl)-3-(2-methylpyrimidin-5-yl)-3-(1-(trifluoromethyl)cyclopropyl)propanamide]",> 3000
9,"Cc1c(C[C@@H](CNC(=O)C[C@H](c2ccncc2)C2(C(F)(F)F)CC2)N(C)C)ccc2[nH]c(=O)oc12 [Compound 170, (R)-N-((S)-2-(dimethylamino)-3-(7-methyl-2-oxo-2,3-dihydrobenzo[d]oxazol-6-yl)propyl)-3-(pyridin-4-yl)-3-(1-(trifluoromethyl)cyclopropyl)propanamide]",< 300
10,"Cc1c(C[C@@H](CNC(=O)C[C@@H](CC2CC2)c2cccnc2)N(C)C)ccc2c1CC(=O)N2 [Compound 179, (R)-4-cyclopropyl-N-((S)-2-(dimethylamino)-3-(4-methyl-2-oxoindolin-5-yl)propyl)-3-(pyridin-3-yl)butanamide]",< 300
11,"Cc1c(C[C@@H](CNC(=O)C[C@H](c2cccnc2)C2(C(F)(F)F)CC2)N(C)C)ccc2c1CC(=O)N2 [Compound 180, (R)-N-((S)-2-(dimethylamino)-3-(4-methyl-2-oxoindolin-5-yl)propyl)-3-(pyridin-3-yl)-3-(1-(trifluoromethyl)cyclopropyl)propanamide]",< 300
12,"CN(C)[C@H](CNC(=O)C[C@H](c1ccccc1)C1(C(F)(F)F)CC1)Cc1ccc2c(c1)CC(=O)N2 [Compound 189, (R)-N-((S)-2-(dimethylamino)-3-(2-oxoindolin-5-yl)propyl)-3-phenyl-3-(1-(trifluoromethyl)cyclopropyl)propanamide]",< 300
13,"CN(C)[C@H](CNC(=O)C[C@H](c1cccnc1)C1(C(F)(F)F)CC1)Cc1ccc2[nH]ncc2c1Cl [Compound 192, (R)-N-((S)-3-(4-chloro-1H-indazol-5-yl)-2-(dimethylamino)propyl)-3-(pyridin-3-yl)-3-(1-(trifluoromethyl)cyclopropyl)propanamide]",< 300
14,"CN(C)[C@H](CNC(=O)C[C@H](c1cccnc1)C1(C(F)(F)F)CC1)Cc1ccc2[nH]ncc2c1F [Compound 195, (R)-N-((S)-2-(dimethylamino)-3-(4-fluoro-1H-indazol-5-yl)propyl)-3-(pyridin-3-yl)-3-(1-(trifluoromethyl)cyclopropyl)propanamide]",< 300
15,"Cc1c(C[C@@H](CNC(=O)C[C@H](c2ccncc2)C2(C(F)(F)F)CC2)N(C)C)ccc2[nH]ncc12 [Compound 196, (R)-N-((S)-2-(dimethylamino)-3-(4-methyl-1H-indazol-5-yl)propyl)-3-(pyridin-4-yl)-3-(1-(trifluoromethyl)cyclopropyl)propanamide]",< 300
16,"Cc1c(C[C@@H](CNC(=O)C[C@H](c2cccnc2)C2(C(F)(F)F)CC2)N(C)C)ccc2[nH]ncc12 [Compound 197, (R)-N-((S)-2-(dimethylamino)-3-(4-methyl-1H-indazol-5-yl)propyl)-3-(pyridin-3-yl)-3-(1-(trifluoromethyl)cyclopropyl)propanamide]",< 300
17,"Cc1c(C[C@@H](CNC(=O)C[C@H](c2cccnc2)C2(C)CC2)N(C)C)ccc2[nH]ncc12 [Compound 199, (S)-N-((S)-2-(dimethylamino)-3-(4-methyl-1H-indazol-5-yl)propyl)-3-(1-methylcyclopropyl)-3-(pyridin-3-yl)propanamide]",< 300
18,"Cc1cncc([C@H](CC(=O)NC[C@H](Cc2ccc3[nH]ncc3c2)N(C)C)C2(C(F)(F)F)CC2)c1 [Compound 203, (S)-N-((S)-2-(dimethylamino)-3-(1H-indazol-5-yl)propyl)-3-(5-methylpyridin-3-yl)-3-(1-(trifluoromethyl)cyclopropyl)propanamide]",300 to 3000
19,"CN(C)[C@H](CNC(=O)C[C@H](c1cccnc1)C1(C)CC1)Cc1ccc2[nH]ncc2c1 [Compound 204, (S)-N-((S)-2-(dimethylamino)-3-(1H-indazol-5-yl)propyl)-3-(1-methylcyclopropyl)-3-(pyridin-3-yl)propanamide]",< 300
20,"CN(C)[C@H](CNC(=O)C[C@@H](c1ccncc1)C1(C(F)(F)F)CC1)Cc1ccc2[nH]ncc2c1 [Compound 208, (S)-N-((S)-2-(dimethylamino)-3-(1H-indazol-5-yl)propyl)-3-(pyridin-4-yl)-3-(1-(trifluoromethyl)cyclopropyl)propanamide]",< 300
21,CN(C)[C@H](CNC(=O)C[C@H](c1ccncc1)C1(C(F)(F)F)CC1)Cc1ccc2[nH]ncc2c1 [Compound 209],< 300

# Same assay, conditions: CHO Tag-lite human mOR stable cell line; forskolin 4 μM and DAMGO at EC90; read-out: mOR cAMP Antagonist Assay IC50
row,Structure (SMILES),IC50 [nM]
1,"CN(C)[C@H](CNC(=O)C[C@@H](c1cccnc1)C1(C(F)(F)F)CC1)Cc1ccc2[nH]c(=O)oc2c1 [Compound 176, (S)-N-((S)-2-(dimethylamino)-3-(2-oxo-2,3-dihydrobenzo[d]oxazol-6-yl)propyl)-3-(pyridin-3-yl)-3-(1-(trifluoromethyl)cyclopropyl)propanamide]",< 300
2,"CN(C)[C@H](CNC(=O)CC(c1ncccn1)C1(C(F)(F)F)CC1)Cc1ccc2c(c1)CC(=O)N2 (stereo partly drawn) [Compound 188, N-((S)-2-(dimethylamino)-3-(2-oxoindolin-5-yl)propyl)-3-(pyrimidin-2-yl)-3-(1-(trifluoromethyl)cyclopropyl)propenamide]",300 to 3000
3,"CN(C)[C@H](CNC(=O)C[C@@H](c1ccccc1)C1(C(F)(F)F)CC1)Cc1ccc2[nH]ncc2c1 [Compound 190, (S)-N-((S)-2-(dimethylamino)-3-(1H-indazol-5-yl)propyl)-3-phenyl-3-(1-(trifluoromethyl)cyclopropyl)propanamide]",300 to 3000
4,"CN(C)[C@H](CNC(=O)C[C@H](c1ccncc1)C1(C(F)(F)F)CC1)Cc1ccc2[nH]ncc2c1Cl [Compound 191, (R)-N-((S)-3-(4-chloro-1H-indazol-5-yl)-2-(dimethylamino)propyl)-3-(pyridin-4-yl)-3-(1-(trifluoromethyl)cyclopropyl)propanamide]",< 300
5,"CN[C@H](CNC(=O)C[C@H](c1cccnc1)C1(C(F)(F)F)CC1)Cc1ccc2[nH]ncc2c1 [Compound 200, (R)-N-((S)-3-(1H-indazol-5-yl)-2-(methylamino)propyl)-3-(pyridin-3-yl)-3-(1-(trifluoromethyl)cyclopropyl)propanamide]",300 to 3000
6,"N[C@H](CNC(=O)C[C@H](c1cccnc1)C1(C(F)(F)F)CC1)Cc1ccc2[nH]ncc2c1 [Compound 201, (R)-N-((S)-2-amino-3-(1H-indazol-5-yl)propyl)-3-(pyridin-3-yl)-3-(1-(trifluoromethyl)cyclopropyl)propenamide dihydrochloride salt]",> 3000
7,"Cc1cc([C@@H](CC(=O)NC[C@H](Cc2ccc3[nH]ncc3c2)N(C)C)C2(C(F)(F)F)CC2)ccn1 [Compound 202, (R)-N-((S)-2-(dimethylamino)-3-(1H-indazol-5-yl)propyl)-3-(2-methylpyridin-4-yl)-3-(1-(trifluoromethyl)cyclopropyl)propanamide]",< 300
8,"CN(C)[C@H](CNC(=O)C[C@H](c1cncc(Cl)c1)C1(C(F)(F)F)CC1)Cc1ccc2[nH]ncc2c1 [Compound 205, (R)-3-(5-chloropyridin-3-yl)-N-((S)-2-(dimethylamino)-3-(1H-indazol-5-yl)propyl)-3-(1-(trifluoromethyl)cyclopropyl) propanamide]",< 300
9,"CC(C)[C@H](CC(=O)NC[C@H](Cc1ccc2[nH]ncc2c1)N(C)C)c1cccnc1 [Compound 206, (S)-N-((S)-2-(dimethylamino)-3-(1H-indazol-5-yl)propyl)-4-methyl-3-(pyridin-3-yl)pentanamide]",300 to 3000
10,"CN(C)[C@H](CNC(=O)C[C@H](c1cccnc1)C1CC1)Cc1ccc2[nH]ncc2c1 [Compound 207, (S)-3-cyclopropyl-N-((S)-2-(dimethylamino)-3-(1H-indazol-5-yl)propyl)-3-(pyridin-3-yl)propanamide]",> 3000
